Reference: patent US8859599B2, “Androgen receptor modulating compounds, preparation and uses thereof” (priority 2009, dated 2014)
Read-outs that look alike come from different tables or passages of the source.

Experiments:
[1] = tested on: PC-3; assay: SRB cytotoxicity on PC-3 cells; assay type: cell-based, human; conditions: PC-3 cells (no AR), 144 h exposure
Method: (§1) Finally, compounds were also tested on HepG2 cells, originally isolated from a primary hepatoblastoma of a child, purchased from ATCC.
(§2) Sulforhodamine B (SRB) assay was used according to the method by Skehan et al. (JNCI, 1990). Briefly, cells were collected by trypsinization, counted and plated at a density of 5,000 cells/well in 96-well flat-bottomed microtiter plates (100 μl of cell suspension/well). In the chemosensitivity assay, experiments were run in octuplicate, and each experiment was repeated three times. The optical density (OD) of cells was determined at a wavelength of 490 nm by a colorimetric plate reader.
(§3) Growth inhibition and cytocidal effect of drugs were calculated according to the formula reported by Monks et al. (JNCI, 1991): [(ODtreated−ODzero)/(ODcontrol−ODzero)]×100%, when ODtreated is > to ODzero. If ODtreated is above ODzero, treatment has induced a cytostatic effect, whereas if ODtreated is below ODzero, cell killing has occurred. The ODzero depicts the cell number at the moment of drug addition, the ODcontrol reflects the cell number in untreated wells and the ODtreated reflects the cell number in treated wells on the day of the assay. TUNEL Assay
(§4) The authors tested the antitumour activity of the compounds also on PC-3 and DU145 cancer cell lines, representative of hormone-refractory prostate cancer due to AR receptor absence.

[2] = tested on: LNCaP cells; assay: TUNEL assay of apoptotic cells in LNCaP; assay type: cell-based, human; conditions: 144-h exposure, 20.0 μM
Method: Cells were fixed in 1% paraformaldehyde in PBS on ice for 15 min, suspended in ice cold ethanol (70%) and stored overnight at −20° C. Cells were then washed twice in PBS and resuspended in PBS containing 0.1% Triton X-100 for 5 min at 4° C. Thereafter, samples were incubated in 50 μl of solution containing TdT and FITC-conjugated dUTP deoxynucleotides 1:1 (Roche Diagnostic GmbH, Mannheim, Germany) in a humidified atmosphere for 90 min at 37° C. in the dark, washed in PBS, counterstained with propidium iodide (2.5 μg/ml, MP Biomedicals, Verona, Italy) and RNAse (10 Kunits/ml, Sigma Aldrich, Milan, Italy) for 30 min at 4° C. in the dark and analyzed by flow cytometry.
After the end of drug exposures, medium was removed and cells were detached from the flasks by trypsin treatment, washed twice with PBS and stained according to the different methods specified below. Flow cytometric analysis was performed using a FACS Canto flow cytometer (Becton Dickinson, San Diego, Calif.). Data acquisition and analysis were performed using FACSDiva software (Becton Dickinson). Samples were run in triplicate and 10,000 events were collected for each replica. Data were the average of three experiments, with errors under 5%.
The cells, before TUNEL assay, were continuously exposed to the anti-androgen compounds for 144 hours at the concentration of 20.0 μM.

[3] = tested on: LNCaP-AR cells; assay: TUNEL assay of apoptotic cells in LNCaP-AR; assay type: cell-based, human; conditions: LNCaP-AR, 144-h exposure, 20.0 μM, TUNEL
[4] = tested on: DU145; assay: SRB cytotoxicity on DU145 cells; assay type: cell-based, human; conditions: DU145 cells (no AR), 144 h exposure
Method: as §1, §2, §3, §4

[5] = tested on: LNCaP cells; assay: Sulforhodamine B (SRB) in vitro chemosensitivity assay on LNCaP cells; assay type: cell-based; conditions: for LC50: read-out: cytocidal effects by 50% (LC50), LNCaP cells, 144 h exposure; for LC50 / cytocidal effects by 50% (LC50): n.r. = not reached
Method: as §2, §3
The authors examined the antitumour activity of the compounds for which the synthesis is described above, in the hormone-sensitive prostate cancer cell line LNCaP. (R)-Bicalutamide and the novel compounds were tested at the increasing concentrations of […]. The highest dose used was chosen on the basis of the clinically achievable peak plasma concentration reported in the literature for bicalutamide (Cockshott I D. Clin Pharmacokinet. 2004; 43 (13) 855-78).
After 144-hr exposure time, the cytotoxic effect of the molecules was calculated according to the method of Monks et al. (Monks A, et al., J. Nat. Cancer Inst. 1991; 83: 757-66).

[6] = biological target: T1, human androgen receptor (hAR) (Homo sapiens, UniProt P10275); assay: hAR transactivation assay (ARE-luciferase reporter) in Cos-7 cells; assay type: cell-based
T1 construct: The cDNA coding hAR was cloned into the pSG5 expression vector as reported previously; expressed in transfected cells; host or cells: Cos-7 cells transiently transfected with pSG5-hAR
T1 sequence (P10275 1-920): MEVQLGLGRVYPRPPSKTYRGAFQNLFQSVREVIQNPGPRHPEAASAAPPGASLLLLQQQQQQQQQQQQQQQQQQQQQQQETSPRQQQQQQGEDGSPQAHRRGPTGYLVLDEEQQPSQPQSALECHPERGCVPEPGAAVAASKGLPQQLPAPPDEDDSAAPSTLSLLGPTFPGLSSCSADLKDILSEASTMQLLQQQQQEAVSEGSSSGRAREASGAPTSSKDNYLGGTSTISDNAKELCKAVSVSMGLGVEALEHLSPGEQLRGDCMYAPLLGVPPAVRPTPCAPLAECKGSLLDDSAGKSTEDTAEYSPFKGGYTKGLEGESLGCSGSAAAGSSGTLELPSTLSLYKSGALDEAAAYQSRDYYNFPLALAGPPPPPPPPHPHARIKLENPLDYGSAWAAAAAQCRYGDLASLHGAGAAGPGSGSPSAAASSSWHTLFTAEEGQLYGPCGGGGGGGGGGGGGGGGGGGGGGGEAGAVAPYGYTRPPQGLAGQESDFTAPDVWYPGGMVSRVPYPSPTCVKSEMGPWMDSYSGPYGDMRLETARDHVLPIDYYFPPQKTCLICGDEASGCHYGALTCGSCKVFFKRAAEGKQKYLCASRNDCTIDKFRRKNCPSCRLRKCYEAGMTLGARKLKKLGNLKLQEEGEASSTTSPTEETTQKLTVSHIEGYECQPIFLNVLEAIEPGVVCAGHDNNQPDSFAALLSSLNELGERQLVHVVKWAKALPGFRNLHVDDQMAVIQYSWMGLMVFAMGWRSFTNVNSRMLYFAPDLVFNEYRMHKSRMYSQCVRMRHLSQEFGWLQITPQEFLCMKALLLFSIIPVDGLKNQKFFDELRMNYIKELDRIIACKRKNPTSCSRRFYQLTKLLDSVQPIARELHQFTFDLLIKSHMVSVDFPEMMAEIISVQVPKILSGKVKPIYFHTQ
Method: The cDNA coding hAR was cloned into the pSG5 expression vector as reported previously [Chang, C. S., et al., Science (1988)240:324-326]. The 3416 construct (ARE-Luc), containing four copies of the wild-type slp-HRE2 (5′-TGGTCAgccAGTTCT-3′) (SEQ ID No. 1) was cloned in the NheI site in pTK-TATA-Luc [Verrijdt, G. et al., J. Biol. Chem. (2000)275:12298-12305].
For androgen-stimulated transcriptional analysis, 32×10^4 Cos-7 cells were plated in phenol red-free DMEM containing 5% charcoal-stripped serum. After 48 h, the cells were transfected by Superfect (Qiagen) with 0.3 μg of 3416-pTK-TATA-Luc construct, together with 1.5 μg of either pSG5-empty plasmid or pSG5-hAR expressing plasmid. After 18 h, transfected cells were stimulated for 24 h with 10 nM of the synthetic androgen, R1881 (from Perkin-Elmer; dissolved in 0.001% ethanol, final concentration), in the absence or presence of the indicated concentrations of synthetic compounds. When indicated, the synthetic compounds were added alone to the cell medium. […] It was dissolved in 0.001% (final concentration) ethanol. Control cells were treated with the vehicle alone. Lysates were prepared and the luciferase activity was measured using a luciferase assay system (Promega). The results were corrected using CH110-expressed beta-galactosidase activity (Amersham Biosciences) and luciferase activity was expressed as fold induction. Results were obtained from two or three different experiments, each performed in duplicate. Mean and SEM are shown.

[7] = tested on: HepG2 cells; assay: Cytotoxic activity on hepatoblastoma cell line HepG2; assay type: cell-based, human; conditions: up to highest concentration tested
Method: as §1, §2, §3
The authors evaluated in vitro the potential hepato-toxicity of some of the novel compounds on HepG2 cell line, a human hepatoblastoma cell line that retains the specialized function of normal hepatocytes [Knowles B B, et al., Science 1980, 209:497-499; Aden D P, et al., Nature, 1979, 282:615-616].

[8] = tested on: normal stem cells derived from human peripheral blood stem cells; assay: Colony-forming cell assay (GM-CFU); assay type: cell-based; conditions: highest concentration tested, 14 days incubation
Method: The colony-forming cell assay was used as previously described [Motta M R et al., Exp Hematol 1997; 25:1261-1269]. In brief, for each molecule, 5×10^4 cells were plated in duplicate in a complete culture medium (MethoCult H4434, StemCell Technologies, Vancouver, Canada) containing different concentrations (0.2, 2, and 20 μmol/l) of the compound. After 14 days of incubation in a humidified atmosphere of 5% CO2 at the temperature of 37° C., granulocyte macrophage colony-forming unit (GM-CFU) aggregates of more than 50 cells were counted. Control cells were incubated under the same conditions but in drug-free medium.
The authors also evaluated the potential toxicity of some of the novel compounds in normal cells as the ability of the drugs to inhibit clonogenic growth of normal stem cells derived from human peripheral blood stem cells (FIG. 37). The exposure of hematopoietic precursor to the compounds, caused low ((S)-37) or negligible (, (R)-22, (R)-23, (R)-10) toxicity at the highest concentration tested.

[9] = Homo sapiens, LNCaP, 144 h, read-out: Growth inhibition (GI50), LNCaP cells, 144 h exposure

Structure (SMILES)	cytotoxic properties compared to effects on LNCaP and LNCaP-AR cells [1]	Apoptotic cells (%) [2] [%]	Apoptotic cells (%) [3] [%]	cytotoxic properties compared to effects on LNCaP and LNCaP-AR cells [4]	LC50 ([5]; Homo sapiens, LNCaP, 144 h) [µM]	cytocidal (cell killing) activity ([5]; LNCaP cells, 144 h exposure)	GI50 ([5]; read-out: Growth inhibition (GI50), LNCaP cells, 144 h exposure) [µM]	inhibition of androgen-induced transcriptional activation (antagonistic activity) ([6]; cells challenged with 10 nM R1881, compound at 10 μM)	agonistic activity, compound alone ([6]; range between 100 nM-10 μM)	potential hepato-toxicity [7]	toxicity: inhibition of clonogenic growth of hematopoietic precursors [8]	GI50 [5, 9] [µM]	cytostatic effect: suppression of cell growth ([5]; LNCaP cells, 144 h, highest concentration tested)	cytocidal effects by 50% (LC50) ([5]; LNCaP cells, 144 h exposure)	GI50 ([5]; Homo sapiens, LNCaP cells, 144 h exposure, read-out: Growth inhibition (GI50)) [µM]
N#Cc1ccc(NC(=O)[C@@](N)(CS(=O)(=O)c2ccc(F)cc2)c2ccccc2)cc1C(F)(F)F [(R)-9]	significant reduction in their cytotoxic proprieties	93.5	83.5	significant reduction in their cytotoxic proprieties	15	cytocidal activity	1.6	–	–	–	–	–	–	–	–
CC(C)(C)S(=O)(=O)N[C@@](C)(CS(=O)(=O)c1ccc(F)cc1)C(=O)Nc1ccc(C#N)c(C(F)(F)F)c1 [(R)-22, (R)—N-(4-cyano-3-(trifluoromethyl)phenyl)-2-(1,1-dimethylethylsulfonamido)-3-(4-fluorophenylsulfonyl)-2-methylpropanamide]	–	–	–	–	20	–	–	antagonistic activity	functions as agonist	negligible toxicity	negligible	5.8	suppress completely the cell growth	–	–
C[C@](N)(CS(=O)(=O)c1ccc(F)cc1)C(=O)Nc1ccc(C#N)c(C(F)(F)F)c1 [(R)-23, (R)-2-amino-N-(4-cyano-3-(trifluoromethyl)phenyl)-3-(4-fluorophenylsulfonyl)-2-methyl propanamide]	–	–	–	–	–	–	–	–	–	negligible toxicity	negligible	10.6	–	n.r.	–
CC(C)(C)S(=O)(=O)N[C@](C)(CS(=O)(=O)c1ccc(F)cc1)C(=O)Nc1ccc(C#N)c(C(F)(F)F)c1 [(S)-22]	significant reduction in their cytotoxic proprieties	6.2	0.0	significant reduction in their cytotoxic proprieties	19.8	cytocidal activity	–	–	–	–	–	7	–	–	–
C[C@](O)(CS(=O)(=O)c1ccc(F)cc1)C(=O)Nc1ccc(C#N)c(C(F)(F)F)c1 [(R)-Bicalutamide, reference compound]	–	2.1	1.0	–	–	–	–	–	–	–	–	–	–	n.r.	1.8
Cc1ccc(S(=O)(=O)N[C@](C)(CS(=O)(=O)c2ccc(F)cc2)C(=O)Nc2ccc(C#N)c(C(F)(F)F)c2)cc1 [(S)-26]	significant reduction in their cytotoxic proprieties	77.5	91.6	significant reduction in their cytotoxic proprieties	18.3	–	–	–	–	–	–	6.3	–	–	–
